Assay results published in ChEMBL document CHEMBL1146045, “Design of novel, potent, and selective human beta-tryptase inhibitors based on alpha-keto-[1,2,4]-oxadiazoles” (Bioorg Med Chem Lett, 2006).
Values after ≈ are worked out from the molar mass of the structure shown.

Experiments:
[1] = target: Tryptase beta-1 (Homo sapiens, UniProt Q15661); test: Inhibition of human beta tryptase
[2] = target: Trypsin (Homo sapiens, UniProt P07477+P07478+P35030); test: Inhibition of human trypsin; type: protein assay
[3] = Solubility at pH 7.4; type: physicochemical; details: buffer
[4] = target: Prothrombin (Homo sapiens, UniProt P00734); test: Inhibition of thrombin
[5] = target: T1, Coagulation factor VII (Homo sapiens, UniProt P08709); test: Inhibition of F7a
T1 sequence (P08709 whole entry): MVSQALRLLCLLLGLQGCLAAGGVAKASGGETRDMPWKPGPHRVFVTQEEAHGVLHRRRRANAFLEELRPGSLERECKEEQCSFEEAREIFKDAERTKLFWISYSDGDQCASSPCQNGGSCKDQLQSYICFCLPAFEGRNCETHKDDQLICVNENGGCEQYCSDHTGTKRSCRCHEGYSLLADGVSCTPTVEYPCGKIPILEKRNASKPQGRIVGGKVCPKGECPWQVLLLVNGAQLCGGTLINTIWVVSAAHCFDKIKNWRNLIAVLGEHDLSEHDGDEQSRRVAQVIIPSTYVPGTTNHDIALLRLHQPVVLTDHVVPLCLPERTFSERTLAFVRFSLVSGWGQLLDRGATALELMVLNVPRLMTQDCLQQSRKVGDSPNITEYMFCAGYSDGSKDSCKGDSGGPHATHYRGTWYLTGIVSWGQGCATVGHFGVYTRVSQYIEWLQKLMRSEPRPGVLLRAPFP

[6] = target: Coagulation factor X (Homo sapiens, UniProt P00742); test: Inhibition of F10a
Sequence of Coagulation factor X (P00742 41-179 limits assumed): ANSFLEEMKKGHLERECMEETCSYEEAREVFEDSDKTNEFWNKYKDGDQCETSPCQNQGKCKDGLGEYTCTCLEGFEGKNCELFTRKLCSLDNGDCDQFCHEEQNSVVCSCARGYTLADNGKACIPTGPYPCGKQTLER
Sequence of Coagulation factor X (P00742 235-488 limits assumed): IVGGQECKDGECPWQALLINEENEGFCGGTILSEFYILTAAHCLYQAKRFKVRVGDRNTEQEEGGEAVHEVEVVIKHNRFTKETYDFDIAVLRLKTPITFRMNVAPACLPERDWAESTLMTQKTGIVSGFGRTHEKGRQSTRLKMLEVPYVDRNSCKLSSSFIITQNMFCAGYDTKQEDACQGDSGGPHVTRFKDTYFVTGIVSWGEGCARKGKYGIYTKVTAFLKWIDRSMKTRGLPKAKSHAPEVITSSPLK

[7] = target: T2, hERG (KCNH2) (Homo sapiens, UniProt Q12809); test: Inhibition of hERG at 1 uM; type: toxicity
T2 sequence (Q12809 whole entry): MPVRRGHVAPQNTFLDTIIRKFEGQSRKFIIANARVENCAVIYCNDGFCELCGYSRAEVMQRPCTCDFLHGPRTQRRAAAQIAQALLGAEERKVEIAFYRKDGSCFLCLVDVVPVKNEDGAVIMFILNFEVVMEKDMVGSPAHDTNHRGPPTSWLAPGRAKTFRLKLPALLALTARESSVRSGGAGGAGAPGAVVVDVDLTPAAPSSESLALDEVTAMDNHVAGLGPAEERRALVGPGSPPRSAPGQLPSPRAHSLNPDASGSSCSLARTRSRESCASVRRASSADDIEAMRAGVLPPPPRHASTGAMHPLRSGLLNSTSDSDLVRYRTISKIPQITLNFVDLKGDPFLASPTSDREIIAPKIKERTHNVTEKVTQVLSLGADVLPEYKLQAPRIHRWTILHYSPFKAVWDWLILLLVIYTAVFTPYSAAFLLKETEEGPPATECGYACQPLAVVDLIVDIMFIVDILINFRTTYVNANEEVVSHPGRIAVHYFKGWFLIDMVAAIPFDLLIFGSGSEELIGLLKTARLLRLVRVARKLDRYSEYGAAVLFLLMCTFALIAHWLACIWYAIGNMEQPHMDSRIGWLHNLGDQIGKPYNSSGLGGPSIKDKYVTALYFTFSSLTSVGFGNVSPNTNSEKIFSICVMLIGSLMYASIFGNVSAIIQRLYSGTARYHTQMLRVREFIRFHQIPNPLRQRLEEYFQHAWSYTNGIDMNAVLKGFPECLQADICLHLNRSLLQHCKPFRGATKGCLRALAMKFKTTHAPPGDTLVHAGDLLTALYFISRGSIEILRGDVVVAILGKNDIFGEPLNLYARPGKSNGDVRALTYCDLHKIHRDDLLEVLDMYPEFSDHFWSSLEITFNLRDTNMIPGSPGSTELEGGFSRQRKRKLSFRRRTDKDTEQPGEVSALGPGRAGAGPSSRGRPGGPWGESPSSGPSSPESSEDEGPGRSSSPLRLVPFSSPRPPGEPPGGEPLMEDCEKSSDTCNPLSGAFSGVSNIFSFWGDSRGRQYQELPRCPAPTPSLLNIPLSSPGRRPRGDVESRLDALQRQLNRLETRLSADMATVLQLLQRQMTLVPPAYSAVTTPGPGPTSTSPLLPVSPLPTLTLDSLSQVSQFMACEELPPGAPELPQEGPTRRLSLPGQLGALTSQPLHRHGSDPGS

[8] = Stability in human liver microsome after 1 hr; type: ADME; details: liver microsomes, read-out: Stability
[9] = target: T2, hERG (KCNH2); test: Inhibition of hERG at 10 uM; type: toxicity

Sequence of Tryptase beta-1 (Q15661 whole entry): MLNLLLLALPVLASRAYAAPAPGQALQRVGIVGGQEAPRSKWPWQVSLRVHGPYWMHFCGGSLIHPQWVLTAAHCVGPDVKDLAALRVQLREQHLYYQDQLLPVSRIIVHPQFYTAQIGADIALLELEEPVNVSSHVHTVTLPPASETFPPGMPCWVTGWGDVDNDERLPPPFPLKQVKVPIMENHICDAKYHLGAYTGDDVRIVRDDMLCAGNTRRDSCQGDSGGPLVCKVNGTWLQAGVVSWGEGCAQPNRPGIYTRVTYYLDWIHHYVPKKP

SMILES	Ki [1] [nM]	Ki [2] [nM]	solubility [3] [µM]	other results
NCCCC[C@H](NC(=O)OCc1ccccc1)C(=O)c1noc(Cc2ccc(C(=O)NC3Cc4ccccc4C3)cc2)n1	3.7	21	206 (≈ 120 µg/mL)	Ki [4]: 48000 nM; Ki [5]: 140000 nM; Ki [6]: 100000 nM
NCCCC[C@H](NC(=O)OCc1ccccc1)C(=O)c1noc(Cc2ccc(C(=O)NCc3ccccc3)cc2)n1	37	23	459 (≈ 255 µg/mL)	
NCCCC[C@H](NC(=O)c1ccc2c(c1)OCO2)C(=O)c1noc(Cc2ccc(C(=O)NCCc3cccc(Cl)c3)cc2)n1	2.1	330	337 (≈ 208 µg/mL)	
CC(C)(C)C(=O)N[C@@H](CCCCN)C(=O)c1noc(Cc2ccc(C(=O)NCCc3cccc(Cl)c3)cc2)n1	2	470	30 (≈ 16.6 µg/mL)	
NCCCC[C@H](NC(=O)c1cc(F)cc(F)c1)C(=O)c1noc(Cc2ccc(C(=O)NCCc3cccc(Cl)c3)cc2)n1	1.5	410	313 (≈ 191 µg/mL)	
CC(C)CCNC(=O)c1ccc(Cc2nc(C(=O)[C@H](CCCCN)NC(=O)OCc3ccccc3)no2)cc1	9.9	29	364 (≈ 195 µg/mL)	inhibition at 1 µM [7]: 0%
NCCCC[C@H](NC(=O)OCc1ccccc1)C(=O)c1noc(CN2CCN(C(=O)CCCc3ccccc3)CC2)n1	34	22	> 500	remaining at 1 h [8]: 2%; inhibition at 10 µM [9]: 2.3%
NCCCC[C@H](NC(=O)OCc1ccccc1)C(=O)c1noc(CN2CCN(C(=O)OCc3ccccc3)CC2)n1	470	42		
NCCCC[C@H](NC(=O)c1ccc(F)c(F)c1)C(=O)c1noc(Cc2ccc(C(=O)NCCc3cccc(Cl)c3)cc2)n1	1.7	440	349 (≈ 213 µg/mL)	
NCCCC[C@H](NC(=O)OCc1ccccc1)C(=O)c1noc(Cc2ccc(C(=O)NCCc3cccs3)cc2)n1	2.4	13	484 (≈ 279 µg/mL)	inhibition at 10 µM [9]: 7.2%
NCCCC[C@H](NC(=O)OCc1ccccc1)C(=O)c1noc(CN2CCN(CCCCc3ccccc3)CC2)n1	5.8	12	466 (≈ 262 µg/mL)	remaining at 1 h [8]: 22%
NCCCC[C@H](NC(=O)OCc1ccccc1)C(=O)c1noc(Cc2ccc(C(=O)NCCCCc3ccccc3)cc2)n1	60	14	188 (≈ 112 µg/mL)	
CCOC(=O)N[C@@H](CCCCN)C(=O)c1noc(Cc2ccc(C(=O)NCCc3cccc(Cl)c3)cc2)n1	1.9	180	471 (≈ 255 µg/mL)	
NCCCC[C@H](NC(=O)OCc1ccccc1)C(=O)c1noc(Cc2ccc(C(=O)NC/C=C/c3ccccc3)cc2)n1	3.6	18	226 (≈ 131 µg/mL)	
NCCCC[C@H](NC(=O)c1ccc(Cl)cc1)C(=O)c1noc(Cc2ccc(C(=O)NCCc3cccc(Cl)c3)cc2)n1	1.9	330		
NCCCC[C@H](NC(=O)OCc1ccccc1)C(=O)c1noc(Cc2ccc(C(=O)NCCc3ccccc3)cc2)n1	3.2	20	440 (≈ 251 µg/mL)	
NCCCC[C@H](NC(=O)OCc1ccccc1)C(=O)c1noc(CN2CCN(CCCc3ccccc3)CC2)n1	11		329 (≈ 181 µg/mL)	
NCCCC[C@H](NC(=O)OCc1ccccc1)C(=O)c1noc(Cc2ccc(C(=O)NCCCc3ccccc3)cc2)n1	3	19	370 (≈ 216 µg/mL)	
NCCCC[C@H](NC(=O)c1cccc(F)c1)C(=O)c1noc(Cc2ccc(C(=O)NCCc3cccc(Cl)c3)cc2)n1	1.7	280	422 (≈ 250 µg/mL)	

Further lines, with some results ahead:

Ki [1] [nM]	Ki [2] [nM]	solubility [3] [µM]	SMILES	other results
770	22	348 (≈ 157 µg/mL)	COc1ccc(Cc2nc(C(=O)[C@H](CCCCN)NC(=O)OCc3ccccc3)no2)cc1	
140	3.7	472 (≈ 303 µg/mL)	NCCCC[C@H](NC(=O)OCc1ccccc1)C(=O)c1noc(Cc2ccc(C(=O)N3CCN(Cc4ccccc4F)CC3)cc2)n1	
1.8	240	390 (≈ 231 µg/mL)	NCCCC[C@H](NC(=O)c1ccc(F)cc1)C(=O)c1noc(Cc2ccc(C(=O)NCCc3cccc(Cl)c3)cc2)n1	
3.5	18	333 (≈ 202 µg/mL)	NCCCC[C@H](NC(=O)OCc1ccccc1)C(=O)c1noc(Cc2ccc(C(=O)NCCc3cc(F)cc(F)c3)cc2)n1	
2.9	11	299 (≈ 180 µg/mL)	NCCCC[C@H](NC(=O)OCc1ccccc1)C(=O)c1noc(Cc2ccc(C(=O)NCCOc3ccc(F)cc3)cc2)n1	
220	27	227 (≈ 145 µg/mL)	NCCCC[C@H](NC(=O)OCc1ccccc1)C(=O)c1noc(Cc2ccc(C(=O)NCCc3ccc(C(F)(F)F)cc3)cc2)n1	
		23 (≈ 12.5 µg/mL)	NCCCC[C@H](NC(=O)OCc1ccccc1)C(=O)c1noc(Cc2ccc(OCCc3ccccc3)cc2)n1	inhibition at 1 µM [7]: 40%
16	31		NCCCC[C@H](NC(=O)OCc1ccccc1)C(=O)c1noc(Cc2ccc(C(=O)NCCc3ccc(Cl)c(Cl)c3)cc2)n1	
11	15	100 (≈ 60.6 µg/mL)	NCCCC[C@H](NC(=O)OCc1ccccc1)C(=O)c1noc(Cc2ccc(C(=O)NCc3ccc4ccccc4c3)cc2)n1	
13	26	77.2 (≈ 46.8 µg/mL)	NCCCC[C@H](NC(=O)OCc1ccccc1)C(=O)c1noc(Cc2ccc(C(=O)NCc3cccc4ccccc34)cc2)n1	
1.8	23	109 (≈ 65.8 µg/mL)	NCCCC[C@H](NC(=O)OCc1ccccc1)C(=O)c1noc(Cc2ccc(C(=O)NCCc3cccc(Cl)c3)cc2)n1	
8.2	30	284 (≈ 181 µg/mL)	NCCCC[C@H](NC(=O)OCc1ccccc1)C(=O)c1noc(Cc2ccc(C(=O)NCCc3cccc(C(F)(F)F)c3)cc2)n1	
39	34	245 (≈ 143 µg/mL)	Cc1ccc(CNC(=O)c2ccc(Cc3nc(C(=O)[C@H](CCCCN)NC(=O)OCc4ccccc4)no3)cc2)cc1C	
	170		CCOC(=O)N[C@@H](CCCCN)C(=O)c1noc(Cc2ccc(C(=O)NC3Cc4ccccc4C3)cc2)n1	remaining at 1 h [8]: 64%; Ki [4]: 60000 nM; Ki [5]: > 150000 nM; Ki [6]: 140000 nM
230	33		NCCCC[C@H](NC(=O)OCc1ccccc1)C(=O)c1noc(CN2CCN(C(=O)CCc3ccccc3)CC2)n1	
